{"source": "paper PMC12560410", "about": "“Multi spectroscopic investigations with molecular docking and molecular dynamics simulation of the binding mechanism of molnupiravir to bovine serum albumin” (BMC Chemistry, 2025)", "key": {"[1]": {"biological_target": "T1, bovine serum albumin (BSA) (Bos taurus, UniProt P02769)", "T1 construct": "purchased BIOMARK laboratories (Pune, Maharashtra, India)", "T1 sequence (P02769 25-607)": "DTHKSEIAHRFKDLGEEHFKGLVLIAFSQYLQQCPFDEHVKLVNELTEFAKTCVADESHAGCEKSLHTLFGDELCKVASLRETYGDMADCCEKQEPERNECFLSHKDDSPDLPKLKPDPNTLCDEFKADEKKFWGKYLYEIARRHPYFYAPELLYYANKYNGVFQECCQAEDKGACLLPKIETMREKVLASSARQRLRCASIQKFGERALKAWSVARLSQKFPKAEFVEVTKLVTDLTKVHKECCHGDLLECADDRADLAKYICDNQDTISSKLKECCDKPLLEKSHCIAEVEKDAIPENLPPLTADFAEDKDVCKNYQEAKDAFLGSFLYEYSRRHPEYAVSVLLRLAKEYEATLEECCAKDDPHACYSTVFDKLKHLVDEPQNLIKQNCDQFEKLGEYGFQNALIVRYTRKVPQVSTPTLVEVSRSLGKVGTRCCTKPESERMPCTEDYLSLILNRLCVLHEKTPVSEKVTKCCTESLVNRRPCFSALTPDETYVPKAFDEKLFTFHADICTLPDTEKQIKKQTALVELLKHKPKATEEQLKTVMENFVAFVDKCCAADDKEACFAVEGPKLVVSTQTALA", "experiment": "Effect of common ions on binding affinity of MOL to BSA", "settings": "297 K, pH 7.4", "excerpt": "[…] […] These findings can be used for further investigations into how different ions influence the binding affinity of MOL to BSA.\nKa′/Ka is the binding constant divided by the binding constant in the absence of the ion; r is the correlation coefficient."}, "bovine serum albumin": {"biological_target": "T2, bovine serum albumin (Bos taurus, UniProt P02769)", "T2 construct": "purchased BIOMARK laboratories (Pune, Maharashtra, India)", "T2 sequence (P02769 25-607)": "as above", "experiment": "FT-IR spectroscopy of BSA with MOL", "format": "binding", "settings": "BSA 3 µM, MOL 180 µM, pH 7.4", "protocol": "FT-IR spectra of 3 µM bovine serum albumin solution in tris-HCl buffer, BSA (3 µM) in the presence of MOL (180 µM), and MOL alone (180 µM) at pH 7.4 were recorded using Tensor27—S2887 FT-IR spectrometer (Bruker, Germany) from 4000 to 1000 cm^− 1. Baseline correction and water vapor subtraction were applied prior to analysis.\nFT-IR spectroscopy was utilized to examine the secondary structure of BSA in free, drug-bound forms and free drug by recording changes in spectra as shown in Fig. S5. However, slight differences were observed between these spectra. […] The results from the UV absorption and fluorescence analysis are consistent with this observation."}, "BSA": {"biological_target": "T3, BSA (Bos taurus, UniProt P02769)", "T3 construct": "purchased BIOMARK laboratories (Pune, Maharashtra, India)", "T3 sequence (P02769 25-607)": "as above", "experiment": "Synchronous fluorescence spectroscopy of BSA with MOL", "format": "binding, bovine", "settings": "MOL 0–180 µM, pH 7.4", "protocol": "Initially, the synchronous fluorescence spectra of BSA were acquired at a concentration of 3µM, and then its mixtures with MOL ranged from 30 to 180 µM at pH 7.4. These spectra were obtained at spectral intervals of Δλ = 15 nm as well as Δλ = 60 nm, with a 10 mm path quartz cell and scanning rate of 1000 nanometers per minute (nm/min).\nThe polarity of the surrounding environment of the fluorescent amino acids in BSA is influenced by ligand interaction, and this has been studied using synchronous fluorescence spectroscopy. In this study, a scanning interval (Δλ) of 60 nm and 15 nm was set between the excitation and emission wavelengths, allowing for the observation of polarity alterations surrounding tyrosine (Tyr) and tryptophan (Trp) residues, respectively.\nSpectra of BSA synchronous fluorescence were acquired for BSA solutions both with and without the addition of MOL (Fig. 4). […] The Ratios of Synchronous Fluorescence Quenching (RSFQ) were determined using Eq. 5 as follows: […]"}, "[2]": {"biological_target": "T1, bovine serum albumin (BSA)", "experiment": "Site marker competition (indomethacin site I, diazepam site II) for MOL binding to BSA", "settings": "295 K, pH 7.4; for Kd: read-out: Log Ka (converted)", "protocol": "This study was conducted using two specific site probes: indomethacin for site I and diazepam for site II. In these experiments, the concentrations of BSA and the site probes were kept constant at 3 µM and 10 µM, respectively, while the concentration of MOL was varied from 30 to 180 µM. Fluorescence intensity was measured at 350 nm with excitation at 295 nm, and all measurements were carried out at 295 K and pH 7.4. The binding equilibrium constants (Ka) of MOL to BSA alone, indomethacin-BSA, and diazepam-BSA complexes were compared.\nThe apparent binding constants (Ka) were calculated by plotting log[(F₀–F)/F] versus log[Q] in the absence and presence of site markers Figure S6."}, "[3]": {"parameters": "method as in PMID 39912659, PMID 37526305", "settings": "following oral administration; hydrolyzed by esterases to NHC; cited from earlier work"}, "[4]": {"biological_target": "T1, bovine serum albumin (BSA)", "experiment": "Fluorescence quenching of BSA by MOL (Stern–Volmer and modified Stern–Volmer analysis, thermodynamics)", "format": "binding", "settings": "for Ksv (Stern–Volmer quenching constant) / n (number of binding sites) / Kd: pH 7.4; for Kd: read-out: Log Ka (converted)", "protocol": "The fluorescence of the tyrosine (Tyr) and tryptophan (Trp) residues observed for solutions that have a fixed BSA concentration 3 µM and different concentrations of MOL (30–180 µM) at pH 7.4. The emission spectra were obtained between 300 and 500 nm. The excitation wavelength was 295 nm, at temperatures 285, 290, 295, 303, and 308 K. […]\nUtilizing the Stern–Volmer equation, the quenching mechanism was identified (Eq. 1):1 [drawing 1]\nThe fluorescence intensities of BSA in absence of MOL are indicated as [drawing 2] while those measured in the presence of MOL are referred to as [drawing 3] . The term [drawing 4] represents the Stern–Volmer quenching rate constant. MOL concentration represents the quencher concentration [drawing 5] .\nF^0/F was plotted versus [Q], then the slope was calculated to obtain the values of Ksv as shown in the Stern–Volmer equation (Eq. 1) to assess the experimental results as shown in Fig. 3.\nIFE-corrected fluorescence intensity values were calculated using the following formula: […]\nThe modified Stern–Volmer equation is used to determine the stoichiometry (n) and equilibrium association constant (Ka), which govern how small molecules interact with specific binding sites on a macromolecule (Eq. 2).2 [drawing 7]\nwhere [drawing 8] represents the number of binding sites and [drawing 9] represents the binding constant, as calculated from the plots of log [(F0–F)/F] against log [Q]. The plot of the modified Stern–Volmer equation was illustrated in Fig. S2. […] The stoichiometry of the binding interaction concerning MOL and BSA was approximately 1:1, as indicated by the n value being close to unity.\nThe intercept and slope of the plot of ln Ka vs. 1/T were used to determine ΔS (entropy change) and ΔH (enthalpy change), respectively in accordance with the Vant’s Hoff equation (Eq. 3), as shown in Table 2.\nFurthermore, the Gibbs–Helmholtz equation determines ΔG (Eq. 4).3 [drawing 10] 4 [drawing 11]\nwhere ΔG denotes the Gibbs free energy change and R denotes the universal gas constant (8.314 J mol^−1 k^−1) while T is the absolute temperature (K). […] The negative values of both ΔH and ΔS indicate that the binding of MOL to BSA is primarily governed by hydrogen bonding and van der Waals interactions rather than hydrophobic forces. The thermodynamic results, was supported by docking analysis, confirming that hydrogen bonding and van der Waals contacts are the dominant driving forces in MOL–BSA complex formation. […] Moreover, the spontaneity of the interaction could reflect the favorable conformational stability of the MOL-BSA complex."}, "[5]": {"settings": "van't Hoff plot of ln Ka vs 1/T, 285–308 K"}}, "data": [{"smiles": "CC(C)C(=O)OC[C@H]1O[C@@H](n2ccc(NO)nc2=O)[C@H](O)[C@@H]1O", "note": "[MOL, Molnupiravir]", "values": [{"measurement": "Ka’/ Ka (binding constant divided by binding constant in absence of the ion)", "setting": "[1]; Ca^2+ added (75 µM)", "result": 0.9046}, {"measurement": "Kd", "setting": "[1]; Ca^2+ added (75 µM), read-out: Ka’ (binding constant) (converted)", "result": 674, "unit": "µM"}, {"measurement": "Ka’/ Ka (binding constant divided by binding constant in absence of the ion)", "setting": "[1]; Co^2+ added (75 µM)", "result": 1.6233}, {"measurement": "Kd", "setting": "[1]; Co^2+ added (75 µM), read-out: Log Ka (converted)", "result": 375, "unit": "µM"}, {"measurement": "Ka’/ Ka (binding constant divided by binding constant in absence of the ion)", "setting": "[1]; Cu^2+ added (75 µM)", "result": 0.2573}, {"measurement": "Kd", "setting": "[1]; Cu^2+ added (75 µM), read-out: Log Ka (converted)", "result": 2370, "unit": "µM"}, {"measurement": "Ka’/ Ka (binding constant divided by binding constant in absence of the ion)", "setting": "[1]; No ion", "result": 1}, {"measurement": "Kd", "setting": "[1]; No ion, read-out: Ka’ (binding constant) (converted)", "result": 609, "unit": "µM"}, {"measurement": "amide band of BSA after addition of MOL", "setting": "bovine serum albumin", "result": "shifted from 1610 cm^−1 to 1636 cm^−1"}, {"measurement": "red shift in λmax of BSA synchronous fluorescence", "setting": "BSA; Δλ = 15 nm (Tyr residues)", "result": "about 2 nm"}, {"measurement": "shift in λmax of BSA synchronous fluorescence", "setting": "BSA; Δλ = 60 nm", "result": "no shift was detected"}, {"measurement": "Kd", "setting": "[2]; in presence of diazepam (site II probe, 10 µM)", "result": 361, "unit": "µM"}, {"measurement": "Kd", "setting": "[2]; in presence of indomethacin (site I probe, 10 µM)", "result": 56.3, "unit": "µM"}, {"measurement": "preferential binding site on BSA", "setting": "[2]; site marker displacement", "result": "Sudlow’s site II"}, {"measurement": "systemic plasma concentration of parent drug", "setting": "[3]", "result": "no significant concentrations of the parent drug are detected systemically in plasma"}, {"measurement": "ΔG (Gibbs free energy change)", "setting": "[4]; 285 K", "result": -23.915, "unit": "KJ mol ^− 1"}, {"measurement": "Ksv (Stern–Volmer quenching constant)", "setting": "[4]; 285 K", "result": 11100, "unit": "L/mol"}, {"measurement": "n (number of binding sites)", "setting": "[4]; 285 K", "result": 1.072}, {"measurement": "Kd", "setting": "[4]; 285 K", "result": 41.4, "unit": "µM"}, {"measurement": "ΔG (Gibbs free energy change)", "setting": "[4]; 290 K", "result": -23.546, "unit": "KJ mol ^− 1"}, {"measurement": "Ksv (Stern–Volmer quenching constant)", "setting": "[4]; 290 K", "result": 9635, "unit": "L/mol"}, {"measurement": "n (number of binding sites)", "setting": "[4]; 290 K", "result": 1.077}, {"measurement": "Kd", "setting": "[4]; 290 K", "result": 57.4, "unit": "µM"}, {"measurement": "difference between IFE-corrected and uncorrected Ksv", "setting": "[4]; 295 K", "result": 0.9, "unit": "%"}, {"measurement": "ΔG (Gibbs free energy change)", "setting": "[4]; 295 K", "result": -23.252, "unit": "KJ mol ^− 1"}, {"measurement": "corrected Stern–Volmer constant (Ksv)", "setting": "[4]; 295 K, inner filter effect (IFE) corrected", "result": 7160, "unit": "L/mol"}, {"measurement": "Ksv (Stern–Volmer quenching constant)", "setting": "[4]; 295 K", "result": 7096, "unit": "L/mol"}, {"measurement": "n (number of binding sites)", "setting": "[4]; 295 K", "result": 1.086}, {"measurement": "Kd", "setting": "[4]; 295 K", "result": 76.3, "unit": "µM"}, {"measurement": "uncorrected Stern–Volmer constant (Ksv)", "setting": "[4]; 295 K, uncorrected", "result": 7096, "unit": "L/mol"}, {"measurement": "ΔG (Gibbs free energy change)", "setting": "[4]; 303 K", "result": -22.276, "unit": "KJ mol ^− 1"}, {"measurement": "Ksv (Stern–Volmer quenching constant)", "setting": "[4]; 303 K", "result": 5288, "unit": "L/mol"}, {"measurement": "n (number of binding sites)", "setting": "[4]; 303 K", "result": 1.066}, {"measurement": "Kd", "setting": "[4]; 303 K", "result": 144, "unit": "µM"}, {"measurement": "ΔG (Gibbs free energy change)", "setting": "[4]; 308 K", "result": -21.618, "unit": "KJ mol ^− 1"}, {"measurement": "Ksv (Stern–Volmer quenching constant)", "setting": "[4]; 308 K", "result": 3800, "unit": "L/mol"}, {"measurement": "n (number of binding sites)", "setting": "[4]; 308 K", "result": 1.055}, {"measurement": "Kd", "setting": "[4]; 308 K", "result": 216, "unit": "µM"}, {"measurement": "fluorescence quenching mechanism", "setting": "[4]; Ksv inversely proportional to temperature", "result": "static interaction"}, {"measurement": "ΔH (enthalpy change)", "setting": "[4]; [5]", "result": -52.434, "unit": "KJ.mol ^− 1"}, {"measurement": "ΔS (entropy change)", "setting": "[4]; [5]", "result": -99.63, "unit": "J mol^− 1K^− 1"}]}]}
